The text below walks through data of PMC8229335, “Screening of Novel Laccase Producers—Isolation and Characterization of Cold-Adapted Laccase from Kabatiella bupleuri G3 Capable of Synthetic Dye Decolorization” (Biomolecules, 2021).

The experiment deals with T1, K. bupleuri laccase G3 (Aureobasidium bupleuri, UniProt A0A8F5DNG6).
T1 construct: about 70-75 kDa by SDS-PAGE
T1 sequence (A0A8F5DNG6 21-645): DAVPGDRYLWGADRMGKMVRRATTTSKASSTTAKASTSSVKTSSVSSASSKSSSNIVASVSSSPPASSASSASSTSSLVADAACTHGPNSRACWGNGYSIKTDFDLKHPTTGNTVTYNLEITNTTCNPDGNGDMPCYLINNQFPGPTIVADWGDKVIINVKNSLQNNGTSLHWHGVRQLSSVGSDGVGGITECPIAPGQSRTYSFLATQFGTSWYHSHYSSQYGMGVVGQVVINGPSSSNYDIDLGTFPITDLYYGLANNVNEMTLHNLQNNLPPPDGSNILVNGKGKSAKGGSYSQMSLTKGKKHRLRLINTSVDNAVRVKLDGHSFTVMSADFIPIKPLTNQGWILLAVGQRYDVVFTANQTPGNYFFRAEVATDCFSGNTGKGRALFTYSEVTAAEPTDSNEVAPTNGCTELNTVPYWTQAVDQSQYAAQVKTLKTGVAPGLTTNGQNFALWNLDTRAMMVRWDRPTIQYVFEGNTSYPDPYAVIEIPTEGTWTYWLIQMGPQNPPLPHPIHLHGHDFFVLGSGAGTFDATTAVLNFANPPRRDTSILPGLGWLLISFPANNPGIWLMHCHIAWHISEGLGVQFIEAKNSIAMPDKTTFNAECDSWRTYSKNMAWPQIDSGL
Nature of the experiment: spectrophotometric oxidation at […] nm; Lineweaver-Burk. It is filed as biochemical. The following applies: pH 3.5, 30 °C; partially purified native enzyme; read-out: apparent Km.

Regarding `CCn1c(=NN=c2sc3cc(S(=O)(=O)O)ccc3n2CC)sc2cc(S(=O)(=O)O)ccc21` [ABTS, 2,2’-azino-bis(3-ethylbenzothiazoline-6-sulfonic acid)], the Michaelis constant (Km) amounted to 584 µM.

One may read the Km as the concentration of substrate that gives half-maximal velocity.
